This note sets out measurements from US20260217708A1, “FUSED BENZAZEPINE DERIVATIVES FOR USE IN THE TREATMENT OF CANCER AND EPILEPSY” (UCB BIOPHARMA SRL, priority 2023, published 2026).

Assay [1] has as its target T1, system Xc^− (Homo sapiens, UniProt Q9UPY5).
T1 sequence (Q9UPY5 1-501): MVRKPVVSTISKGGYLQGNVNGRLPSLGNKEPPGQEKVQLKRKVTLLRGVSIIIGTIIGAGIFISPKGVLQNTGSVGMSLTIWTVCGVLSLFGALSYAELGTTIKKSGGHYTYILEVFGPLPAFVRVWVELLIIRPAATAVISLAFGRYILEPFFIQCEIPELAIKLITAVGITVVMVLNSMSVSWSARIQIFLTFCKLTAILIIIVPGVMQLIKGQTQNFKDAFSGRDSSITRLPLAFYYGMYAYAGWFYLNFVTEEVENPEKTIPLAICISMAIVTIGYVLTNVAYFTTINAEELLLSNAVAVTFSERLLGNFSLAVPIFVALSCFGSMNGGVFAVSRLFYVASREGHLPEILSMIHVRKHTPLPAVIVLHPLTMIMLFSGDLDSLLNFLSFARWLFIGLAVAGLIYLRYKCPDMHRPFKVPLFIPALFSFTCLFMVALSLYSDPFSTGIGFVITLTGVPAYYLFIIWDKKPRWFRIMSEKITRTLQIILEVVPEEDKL
T1 sequence (P08195 1-529 partner): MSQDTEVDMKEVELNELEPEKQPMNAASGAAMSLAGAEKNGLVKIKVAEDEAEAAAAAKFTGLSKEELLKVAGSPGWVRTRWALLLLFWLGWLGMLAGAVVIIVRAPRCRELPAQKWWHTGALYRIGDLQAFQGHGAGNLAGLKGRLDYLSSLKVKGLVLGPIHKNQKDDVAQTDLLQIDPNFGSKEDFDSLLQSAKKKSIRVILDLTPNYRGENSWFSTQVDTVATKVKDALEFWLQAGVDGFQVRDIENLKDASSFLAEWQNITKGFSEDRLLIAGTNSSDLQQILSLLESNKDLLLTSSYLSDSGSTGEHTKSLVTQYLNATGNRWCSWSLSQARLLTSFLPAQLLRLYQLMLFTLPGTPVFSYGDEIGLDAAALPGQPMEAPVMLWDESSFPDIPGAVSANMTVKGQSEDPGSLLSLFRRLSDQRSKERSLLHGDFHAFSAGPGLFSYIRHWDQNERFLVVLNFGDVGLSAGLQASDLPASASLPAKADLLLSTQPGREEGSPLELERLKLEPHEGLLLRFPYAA
The experiment in a line: Cystine-induced glutamate release assay. The class given is cell-based. To be noted: H4 cells, sodium-free HEPES buffer, 50 μM L-Cystine, 2 hours, Amplex Red glutamate readout; read-out: pIC50 Cystine-induced glutamate release assay (converted). Also on record: endogenous in cells; host or cells: H4 cells. In short, it runs like this:
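H4 cells in sodium-free HEPES buffer (pH 7.4), 2 days after plating; glutamate release induced with 50 μM L-cystine plus compound (1% DMSO), 2 h at 37 °C. Supernatant glutamate measured by Amplex Red fluorescence; IC50/pIC50 derived between 1% DMSO and 50 μM erastin controls.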

Assay [2] has as its target T1, system Xc^−. Kind of assay: [^14C]L-Cystine uptake assay. The class given is cell-based. Also on record: endogenous in cells; host or cells: H4 cells. As to conditions: H4 cells, sodium-free HEPES buffer, 0.5 μM L-[14C]Cystine and 4.5 μM L-Cystine, 1 hour at 37° C.; read-out: pIC50 [^14C] L-Cystine uptake assay (converted). The method in brief:
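H4 cells at 5×10^4 cells/well in sodium-free HEPES buffer were preincubated 15 min with compounds (1% DMSO). Uptake of 0.5 μM [14C]L-cystine plus 4.5 μM unlabelled L-cystine ran 1 hour at 37° C on scintillating plates. IC50 was set between 1% DMSO and 50 μM Erastin controls and expressed as pIC50.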

As to `COc1nc(C)cc2c1-c1cncnc1CC(=O)N2CC(=O)Nc1ccc(C(F)(F)F)cc1` [#98, 2-(15-methoxy-13-methyl-9-oxo-4,6,10,14-tetrazatricyclo[9.4.0.0^2,7]pentadeca-1(15),2(7),3,5,11,13-hexaen-10-yl)-N-[4-(trifluoromethyl)phenyl]acetamide], the IC50 is 39.8 to 100 nM on system Xc^− [1] and 15.8 to 39.8 nM at system Xc^− [2].
For `COc1nc(C)cc2c1-c1ccnn1CC(=O)N2CC(=O)Nc1ccc(C(F)(F)F)cc1` [#99, 2-(14-methoxy-12-methyl-8-oxo-5,6,9,13-tetrazatricyclo[8.4.0.0^2,6]tetradeca-1(14),2,4,10,12-pentaen-9-yl)-N-[4-(trifluoromethyl)phenyl]acetamide], in that order: 39.8 to 100 nM and 100 to 501 nM.
In the case of `Cc1cc2c(c(Cl)n1)-c1ccnn1CC(=O)N2CC(=O)Nc1ccc(C(F)(F)F)cc1` [#100, 2-(14-chloro-12-methyl-8-oxo-5,6,9,13-tetrazatricyclo[8.4.0.0^2,6]tetradeca-1(14),2,4,10,12-pentaen-9-yl)-N-[4-(trifluoromethyl)phenyl]acetamide], the IC50 on system Xc^− [1] and at system Xc^− [2] was 39.8 to 100 nM in each case.
`Cc1cc2c(c(F)n1)-c1cccnc1C(F)C(=O)N2CC(=O)Nc1ccc(C(F)(F)F)cc1` (stereo not shown) [#101, 2-(3,10-difluoro-5-methyl-9-oxo-4,8,12-triazatricyclo[9.4.0.0^2,7]pentadeca-1(11),2(7),3,5,12,14-hexaen-8-yl)-N-[4-(trifluoromethyl)phenyl]acetamide]: the figures for the IC50 at system Xc^− [1] and at system Xc^− [2] were 15.8 to 39.8 nM and under 15.8 nM, respectively.
In the case of `Cc1cc2c(c(F)n1)-c1cccc(=O)n1CC(=O)N2CC(=O)Nc1ccc(C(F)(F)F)cc1` [#102, 2-(3-fluoro-5-methyl-9,12-dioxo-4,8,11-triazatricyclo[9.4.0.0^2,7]pentadeca-1(15),2(7),3,5,13-pentaen-8-yl)-N-[4-(trifluoromethyl)phenyl]acetamide], the values for the IC50 at system Xc^− [1] and at system Xc^− [2] were 100 to 501 nM and 39.8 to 100 nM, respectively.
Take `Cc1cc2c(c(N)n1)-c1cccnc1CC(=O)N2CC(=O)Nc1ccc(C(F)(F)F)cc1` [#103, 2-(3-amino-5-methyl-9-oxo-4,8,12-triazatricyclo[9.4.0.0^2,7]pentadeca-1(11),2(7),3,5,12,14-hexaen-8-yl)-N-[4-(trifluoromethyl)phenyl]acetamide]: the IC50 at system Xc^− [1] and at system Xc^− [2] was 100 to 501 nM throughout.
`COc1nc(C)cc2c1-c1cc(C)nn1CC(=O)N2CC(=O)Nc1ccc(C(F)(F)F)cc1` [#104, 2-(14-methoxy-4,12-dimethyl-8-oxo-5,6,9,13-tetrazatricyclo[8.4.0.0^2,6]tetradeca-1(14),2,4,10,12-pentaen-9-yl)-N-[4-(trifluoromethyl)phenyl]acetamide]: the IC50 on system Xc^− [1] and on system Xc^− [2] was 39.8 to 100 nM in each case.
As to `Cc1cc2c(c(Cl)n1)-c1cc(C)nn1CC(=O)N2CC(=O)Nc1ccc(C(F)(F)F)cc1` [#105, 2-(14-chloro-4,12-dimethyl-8-oxo-5,6,9,13-tetrazatricyclo[8.4.0.0^2,6]tetradeca-1(14),2,4,10,12-pentaen-9-yl)-N-[4-(trifluoromethyl)phenyl]acetamide], the IC50 at system Xc^− [1] and at system Xc^− [2] was 39.8 to 100 nM in each case.
Consider `Cc1cc2c(c(F)n1)-c1cc(C)nn1CC(=O)N2CC(=O)Nc1ccc(C(F)(F)F)cc1` [#106, 2-(14-fluoro-4,12-dimethyl-8-oxo-5,6,9,13-tetrazatricyclo[8.4.0.0^2,6]tetradeca-1(10),2,4,11,13-pentaen-9-yl)-N-[4-(trifluoromethyl)phenyl]acetamide], for which the IC50 was 39.8 to 100 nM on system Xc^− [1] and 100 to 501 nM on system Xc^− [2].
In the case of `COC1C(=O)N(CC(=O)Nc2ccc(C(F)(F)F)cc2)c2cc(C)nc(Cl)c2-c2ccccc21` (stereo not shown) [#107, 2-(1-chloro-7-methoxy-3-methyl-6-oxo-7H-pyrido[3,4-a][3]benzazepin-5-yl)-N-[4-(trifluoromethyl)phenyl]acetamide], the IC50 was 15.8 to 39.8 nM at system Xc^− [1] and under 15.8 nM at system Xc^− [2].
Consider `COc1cc2c(c(OC)n1)-c1cccnc1CC(=O)N2CC(=O)Nc1ccc(C(F)(F)F)cc1` [#108, 2-(3,5-dimethoxy-9-oxo-4,8,12-triazatricyclo[9.4.0.0^2,7]pentadeca-1(11),2,4,6,12,14-hexaen-8-yl)-N-[4-(trifluoromethyl)phenyl]acetamide], for which the IC50 at system Xc^− [1] was 39.8 to 100 nM; on system Xc^− [2], under 15.8 nM.
For `COc1nc2c(cc1C)N(CC(=O)Nc1ccc(C(F)(F)F)cc1)C(=O)C(C)c1ncccc1-2` (stereo not shown) [#109, 2-(4-methoxy-5,10-dimethyl-9-oxo-3,8,12-triazatricyclo[9.4.0.0^2,7]pentadeca-1(11),2,4,6,12,14-hexaen-8-yl)-N-[4-(trifluoromethyl)phenyl]acetamide], in that order: 39.8 to 100 nM and 15.8 to 39.8 nM.
`Cc1cc2c(c(F)n1)-c1ccnnc1CC(=O)N2CC(=O)Nc1ccc(C(F)(F)F)cc1` [#110, 2-(3-fluoro-5-methyl-9-oxo-4,8,12,13-tetrazatricyclo[9.4.0.0^2,7]pentadeca-1(11),2,4,6,12,14-hexaen-8-yl)-N-[4-(trifluoromethyl)phenyl]acetamide]: the figures for the IC50 on system Xc^− [1] and on system Xc^− [2] were 100 to 501 nM and 39.8 to 100 nM, respectively.
Regarding `Cc1cc2c(c(F)n1)-c1ccnn1C(C)C(=O)N2CC(=O)Nc1ccc(C(F)(F)F)cc1` (stereo not shown) [#111, 2-(14-fluoro-7,12-dimethyl-8-oxo-5,6,9,13-tetrazatricyclo[8.4.0.0^2,6]tetradeca-1(10),2,4,11,13-pentaen-9-yl)-N-[4-(trifluoromethyl)phenyl]acetamide], the IC50 at system Xc^− [1] was 100 to 501 nM; at system Xc^− [2], 39.8 to 100 nM.
Take `Cc1cc2c(c(F)n1)-c1cncnc1C(C)C(=O)N2CC(=O)Nc1ccc(C(F)(F)F)cc1` (stereo not shown) [#112, 2-(15-fluoro-8,13-dimethyl-9-oxo-4,6,10,14-tetrazatricyclo[9.4.0.0^2,7]pentadeca-1(15),2(7),3,5,11,13-hexaen-10-yl)-N-[4-(trifluoromethyl)phenyl]acetamide]: the IC50 on system Xc^− [1] was 39.8 to 100 nM; at system Xc^− [2], under 15.8 nM.
Turning to `COc1nc(F)cc2c1-c1cccnc1CC(=O)N2CC(=O)Nc1ccc(C(F)(F)F)cc1` [#113, 2-(5-fluoro-3-methoxy-9-oxo-4,8,12-triazatricyclo[9.4.0.0^2,7]pentadeca-1(11),2,4,6,12,14-hexaen-8-yl)-N-[4-(trifluoromethyl)phenyl]acetamide], the IC50 on system Xc^− [1] is 39.8 to 100 nM; on system Xc^− [2], under 15.8 nM.
Consider `Cc1cc2c(c(Cl)n1)-c1cccnc1C(C)C(=O)N2CC(=O)Nc1ccc(C(F)(F)F)cc1` (stereo not shown) [#114, 2-(3-chloro-5,10-dimethyl-9-oxo-4,8,12-triazatricyclo[9.4.0.0^2,7]pentadeca-1(11),2,4,6,12,14-hexaen-8-yl)-N-[4-(trifluoromethyl)phenyl]acetamide], for which the IC50 was 15.8 to 39.8 nM on system Xc^− [1] and under 15.8 nM on system Xc^− [2].
Consider `Cc1cc2c(c(Cl)n1)-c1cccnc1C(C)C(=O)N2CC(=O)Nc1ccc(C#N)cc1` (stereo not shown) [#115, 2-(3-chloro-5,10-dimethyl-9-oxo-4,8,12-triazatricyclo[9.4.0.0^2,7]pentadeca-1(11),2,4,6,12,14-hexaen-8-yl)-N-(4-cyanophenyl)acetamide], for which the IC50 on system Xc^− [1] was 100 to 501 nM; at system Xc^− [2], 39.8 to 100 nM.
Turning to `CC(=O)N(C)c1nc2c(s1)-c1ccccc1CC(=O)N2CC(=O)Nc1ccc(C(F)(F)F)cc1` [#118, 2-[2-[acetyl(methyl)amino]-5-oxo-6H-thiazolo[4,5-d][3]benzazepin-4-yl]-N-[4-(trifluoromethyl)phenyl]acetamide], the IC50 at system Xc^− [1] is 100 to 501 nM; at system Xc^− [2] it was 39.8 to 100 nM.
`Cc1cc2c(n(C)c1=O)-c1cccnc1C(C)C(=O)N2CC(=O)Nc1ccc(C(F)(F)F)cc1` (stereo not shown) [#119, N-[4-(trifluoromethyl)phenyl]-2-(3,5,10-trimethyl-4,9-dioxo-3,8,12-triazatricyclo[9.4.0.0^2,7]pentadeca-1(11),2(7),5,12,14-pentaen-8-yl)acetamide]: the IC50 at system Xc^− [1] and at system Xc^− [2] was 15.8 to 39.8 nM throughout.
